Source: patent US10604473B2, “Lipids that increase insulin sensitivity and methods of using the same” (Beth Israel Deaconess Medical Center, Inc., priority 2013, dated 2020)

System: isolated rat islets
Assay: Insulin release in isolated rat islets
Format: cell-based
Details: 25 mM glucose in the media
Protocol: Ins1 cells (FIG. 21) or primary rat islet cells (FIG. 22) were seeded in 24 well-plates [˜10^6 cells/well]. At confluence, cells were incubated with Low Serum [2.5%] and Low Glucose [2.5 mM] media for 12 hours. Next, cells were incubated with KRB buffer for 1 h and stimulated with glucose in the presence of 5-PAHSA (FIG. 21) or 9-PAHSA (FIG. 21) for 45 min in KRB. At the end of the stimulation, 100 μL of media was collected and 10 μL was used to quantitate the amount of insulin released by ELISA. Treatment Conditions for FIGS. 21 and 22 were: • 5-PAHSA or 9-PAHSA [Stock]=20.0 mM [10.76 mg/mL Methanol] • A] 1 uM=0.3 uL/6 mL [Amount of methanol/mL=0.05 uL] • B] 5 uM=1.5 uL/6 mL [Amount of methanol/mL=0.25 uL] • C] 10 uM=3.0 uL/6 mL [Amount of methanol/mL=0.50 uL] • D] 20 uM=6.0 uL/6 mL [Amount of methanol/mL=1.00 uL] […]
Isolated rat islets were cultured overnight in RPMI 1640 medium containing 2.5 mM glucose and 2.5% fetal bovine serum supplemented with 100 IU/ml penicillin and 100 IU/ml streptomycin, 1 mM sodium pyruvate, and 10 mM HEPES (pH 7.4). […] At the end of the stimulation supernatant was collected and insulin released into the medium was quantified by ELISA as per manufacturer's protocol. The islets were lysed and protein content was measured and the amount of insulin released into the media was quantitated as ng/mL/μg of protein.

CCCCCCCCCCCCCCCC(=O)OC(CCCCCCCCCCCCC)CCCC(=O)O (stereo not shown) [5-PAHSA]
glucose-stimulated insulin secretion: potentiates glucose-stimulated insulin secretion
